Source: ChEMBL document CHEMBL1129198, “Synthesis and antibacterial activity of lipophilic carbapenems with anti-MRSA activity” (Bioorg Med Chem Lett, 1996)
≈ marks a conversion by molar mass, not a printed value.

What was measured:
Staphylococcus aureus [1] = assay: Antibacterial activity against methicillin-sensitive Staphylococcus aureus 601055.; format: functional
Streptococcus pneumoniae = assay: Antibacterial activity against penicillin-resistant Streptococcus pneumoniae 671319; format: functional
Staphylococcus aureus [2] = assay: Antibacterial activity against methicillin-resistant Staphylococcus aureus 601053.; format: functional
Enterococcus faecalis = assay: Antibacterial activity against vancomycin-sensitive Enterococcus faecalis 683026.; format: functional
Staphylococcus aureus [3] = assay: Antibacterial activity against methicillin-sensitive Staphylococcus aureus 601055.(grown in the presence of blood); format: functional
Staphylococcus aureus [4] = assay: Antibacterial activity against methicillin-resistant Staphylococcus aureus 607004.; format: functional
[5] = tested on: Staphylococcus haemolyticus; assay: Antibacterial activity against methicillin-resistant Staphylococcus haemolyticus 601117; format: functional
Enterococcus faecium = assay: Antibacterial activity against vancomycin-resistant Enterococcus faecium 628016.; format: functional
[6] = In vitro binding affinity towards PBP2'' of Staphylococcus aureus using [14C]benzylpenicillin as radioligand
[7] = Compound was tested for its binding affinity against PBP2' receptor in Staphylococcus aureus.
Staphylococcus aureus [8] = assay: Compound was tested for its binding affinity against PBP2'' receptor in Staphylococcus aureus. Values taken from literature.; format: functional

SMILES | MIC (Staphylococcus aureus [1]) [µg/mL] | MIC (Streptococcus pneumoniae) [µg/mL] | MIC (Staphylococcus aureus [2]) [µg/mL] | MIC (Enterococcus faecalis) [µg/mL] | MIC (Staphylococcus aureus [3]) [µg/mL] | MIC (Staphylococcus aureus [4]) [µg/mL] | MIC [5] [µg/mL] | MIC (Enterococcus faecium) [µg/mL] | IC50 [6] [µg/mL] | IC50 [7] [µg/mL] | IC50 (Staphylococcus aureus [8]) [µg/mL]
C[C@@H](O)[C@H]1C(=O)N2C(C(=O)O)=C(CSc3ccc4c(c3)CCC4=O)[C@H](C)[C@H]12 | 0.016 (≈ 0.0413 µM) | 0.03 (≈ 0.0774 µM) | 0.5 (≈ 1.29 µM) | 1 (≈ 2.58 µM) | 0.008 | 2 (≈ 5.16 µM) | 2 (≈ 5.16 µM) | 0.5 (≈ 1.29 µM) | – | – | –
C[C@@H](O)[C@H]1C(=O)N2C(C(=O)O)=C(COc3cccc4c3CCCC4=O)[C@H](C)[C@H]12 | 0.016 (≈ 0.0415 µM) | 0.06 (≈ 0.156 µM) | 0.25 (≈ 0.649 µM) | 2 (≈ 5.19 µM) | 0.008 | 2 (≈ 5.19 µM) | 4 (≈ 10.4 µM) | 2 (≈ 5.19 µM) | – | – | –
C[C@@H](O)[C@H]1C(=O)N2C(C(=O)O)=C(COc3cccc4c3C/C(=C\c3cccs3)C4=O)[C@H](C)[C@H]12 | 0.008 (≈ 0.0172 µM) | 0.03 (≈ 0.0644 µM) | 0.25 (≈ 0.537 µM) | 2 (≈ 4.3 µM) | 0.008 | 2 (≈ 4.3 µM) | 0.5 (≈ 1.07 µM) | 4 (≈ 8.59 µM) | – | – | –
C[C@@H](O)[C@H]1C(=O)N2C(C(=O)O)=C(COc3ccc4c(c3)CCC4)[C@H](C)[C@H]12 | 0.03 (≈ 0.0839 µM) | 1 (≈ 2.8 µM) | 1 (≈ 2.8 µM) | 64 (≈ 179 µM) | 8 | 16 (≈ 44.8 µM) | 16 (≈ 44.8 µM) | 32 (≈ 89.5 µM) | – | – | –
C[C@@H](O)[C@H]1C(=O)N2C(C(=O)O)=C(Sc3ccc4ccccc4c3)[C@H](C)[C@H]12 | 0.03 (≈ 0.0812 µM) | 2 (≈ 5.41 µM) | 1 (≈ 2.71 µM) | 16 (≈ 43.3 µM) | 0.03 | 8 (≈ 21.7 µM) | 8 (≈ 21.7 µM) | 8 (≈ 21.7 µM) | – | – | –
C[C@@H](O)[C@H]1C(=O)N2C(C(=O)O)=C(Sc3ccc(C#N)c4ccccc34)[C@H](C)[C@H]12 | 0.016 (≈ 0.0406 µM) | 0.25 (≈ 0.634 µM) | 0.5 (≈ 1.27 µM) | 8 (≈ 20.3 µM) | 0.016 | 2 (≈ 5.07 µM) | 1 (≈ 2.54 µM) | 2 (≈ 5.07 µM) | – | – | –
C[C@@H](O)[C@H]1C(=O)N2C(C(=O)O)=C(COc3cccc4c3CCC4=O)[C@H](C)[C@H]12 | 0.016 (≈ 0.0431 µM) | 0.06 (≈ 0.162 µM) | 0.12 (≈ 0.323 µM) | 1 (≈ 2.69 µM) | 0.008 | 4 (≈ 10.8 µM) | 8 (≈ 21.5 µM) | 2 (≈ 5.39 µM) | – | – | –
C[C@@H](O)[C@H]1C(=O)N2C(C(=O)[O-])=C(COc3ccc4nc(C[n+]5ccccc5)sc4c3)[C@H](C)[C@H]12 | 0.03 (≈ 0.0644 µM) | 0.06 (≈ 0.129 µM) | 0.25 (≈ 0.537 µM) | 0.5 (≈ 1.07 µM) | 0.016 | 4 (≈ 8.59 µM) | 2 (≈ 4.3 µM) | 2 (≈ 4.3 µM) | – | – | –
C[C@@H](O)[C@H]1C(=O)N2C(C(=O)[O-])=C(COc3ccc4cc(Cn5cc[n+](C)c5)ccc4c3)[C@H](C)[C@H]12 | 0.016 (≈ 0.0347 µM) | 0.06 (≈ 0.13 µM) | 0.5 (≈ 1.08 µM) | 2 (≈ 4.33 µM) | 0.016 | 1 (≈ 2.17 µM) | 2 (≈ 4.33 µM) | 2 (≈ 4.33 µM) | – | – | –
C[C@@H](O)[C@H]1C(=O)N2C(C(=O)O)=C(CSc3ccc4c(c3)OCCC4=O)[C@H](C)[C@H]12 | 0.03 (≈ 0.0744 µM) | 0.03 (≈ 0.0744 µM) | 1 (≈ 2.48 µM) | 1 (≈ 2.48 µM) | 0.008 | 1 (≈ 2.48 µM) | 1 (≈ 2.48 µM) | 0.5 (≈ 1.24 µM) | – | – | –
C[C@@H](O)[C@H]1C(=O)N2C(C(=O)O)=C(COc3ccc4cc(C(N)=O)ccc4c3)[C@H](C)[C@H]12 | 0.008 (≈ 0.0195 µM) | 0.03 (≈ 0.0731 µM) | 0.25 (≈ 0.609 µM) | 2 (≈ 4.87 µM) | 0.016 | 0.5 (≈ 1.22 µM) | 2 (≈ 4.87 µM) | 1 (≈ 2.44 µM) | > 16 | > 16 | 8 (≈ 19.5 µM)
C[C@@H](O)[C@H]1C(=O)N2C(C(=O)O)=C(SCCc3ccc4ccccc4c3)[C@H](C)[C@H]12 | 0.13 (≈ 0.327 µM) | 0.5 (≈ 1.26 µM) | 8 (≈ 20.1 µM) | 8 (≈ 20.1 µM) | 0.13 | 32 (≈ 80.5 µM) | 128 (≈ 322 µM) | 16 (≈ 40.3 µM) | – | – | –
